Values of other authors in patent US9463220B2, “Method for inducing twin calving” (China Agricultural University, priority 2013, dated 2016).

Test system: cow
Details: small doses of FSH with estrus synchronization 13 days before and aspiration of more than 3 large follicles on day 7

For follicle-stimulating hormone [FSH], the “rate of 2-3 ovulations” value is listed as 90%.
